The results in this text go back to patent US20150265669A1, “METHODS AND COMPOSITIONS FOR INHIBITING CANCER CELL GROWTH” (priority 2014, published 2015).

SMILES strings stand for the structures. Values after ≈ are worked out from the molar mass of the structure shown.

The test system of test [1] is Spleen tissue of leukaemic BALB/c mice. The test can be described thus: TUNEL assay of spleen tissue. In kind it is in vivo. The following applies: Morinda at low and high doses.
For test [2], the system named is A549 (lung cancer). The test can be described thus: Colourimetric assay of caspase 3, 8 and 9 in A549. Format: cell-based, human. Conditions: A549, treated vs untreated cells, 24-72 hours. The method, then: The colorimetric assay of caspase 3 was performed using fluorometric and colorimetric assay kit (biotium kit). Wehi-3B (blood cancer) or A549 (lung cancer) cells at concentration of 1×10^6 cells/ml were cultured in RPMI 1640 (ATCC, USA) medium supplemented with 10% fetal bovin serum and were seeded into […] culture flask. […] Untreated cells acted as control. The cells were lysed with cold lysis buffer and incubated for 10 minutes on ice. Then, cell lysate was spun down at 10000 rpm for 5 minutes. The supernatant was transferred to new wells and 50 μl assay buffer was added to each samples. Then, 5 μl of enzyme substrate (caspase-3 and 8 substrate) was added to each sample and incubated at 37° c. for 30-60 minutes in a dark place. […]. The samples were read at 495 nm in a microplate reader. Finally, the results were shown as optical density (495 nm, mean SD).

Test [3] relates to A549 cells (lung cancer). The test can be described thus: Flow cytometric cell cycle phase distribution. The following applies: A549, IC50 concentration; for cell cycle arrest: 12-72 hours. In kind it is cell-based, human. The method, then:
The Wehi-3B (blood cancer) or A549 (lung cancer) cells (2×10^5 cells/mL) were treated with IC50 concentration of Morinda spp. leaves, or Clinacanthus spp. leaves with or without Zingiber extract and compared with erlotinib. After 12, 24, 48, and 72 hours of incubation, the cells were trypsinized, washed, fixed in 70% ethanol, stained with 1 mg/mL PI and analysed by flow cytometry (BD FACS Canto II, USA).
For flow cytometry analysis fixation of cell population must be performed to keep the integrity and the cell pellets were fixed by adding of 500 μl of 70% chilled ethanol and kept at −20° c. for 5-7 days. Then, the cells were centrifuged at 1000 rpm for 10 minutes and the ethanol was removed. The cells were washed with washing solution containing PBS, EDTA, bovine serum albumin and sodium azide twice, and the pellet cells were resuspended to staining buffer containing 1 ml PBS and 3 μl PI (10 mg/ml) and 10 μl RNase A (50 mg/ml) for 30 minutes on ice dark place. RNase was added in order to permit PI to bind exactly to DNA. The DNA content of cells was analysed with a BD flow cytometer, and the data analysis was performed by using summit V4.3 software.
On the technique in general: Flow cytometry measures light scatter and fluorescence of single cells or particles in a stream.

The test system of test [4] is A549 cells (lung cancer). The test can be described thus: Morphological changes under normal phase contrast inverted microscope. In kind it is cell-based, human. Conditions: 400x. As for the experimental part: Wehi-3B (blood cancer) or A549 (lung cancer) cells at concentration of 1×10^6 cells/ml were cultured in RPMI 1640 (ATCC, USA) medium supplemented with 10% fetal bovin serum and were seeded into […] culture flask. […] The morphological changes of the cells were observed under normal inverted microscope. Untreated cells were used as negative control. Some morphological appearances such as plasma membrane blebbing, rounding up the cells, cell detachment, cell shrinkage and formation of vacuole in the cell were observed.
Similarly Human lung fibroblast (MRC5), human lung adenocarcinoma (A549) cell lines, Essential Modified Eagle's Medium (EMEM) and Kaighn's Modification of Ham's F-12 (F-12K) medium were obtained from American Type Culture Collection (ATCC). MRC5 and A549 cells were cultured in EMEM and F-12K medium, respectively. Both media supplemented with 10% fetal bovine serum (FBS) and 1% of 100 μg/mL penicillin and streptomycin. Cells were grown in a humidified incubator at 37° C. with 5% CO2.

Test [5] deals with A549 cells (lung cancer). Kind of test: AO/PI double staining fluorescence microscopy. Format: cell-based, human. Conditions: 200x. The method, then:
AO/PI double staining was carried out to visualize any morphological changes in the cells upon treatment and also to semi-quantitated viable, apoptotic and necrotic cells, as shown in FIG. 3. […] After 24 hours treatment, blebbing of the cell membrane and dense green nucleus, which indicated nuclear chromatin condensation were noticeable (FIGS. 3(b) and 3(e)). Both early apoptosis features (blebbing and chromatin condensation) and late phases of apoptosis, which specify presence of intense reddish-orange colour due to acridine orange binding to denatured DNA, were observed more apparent at 48 hours of treatment (FIGS. 3(c) and 3(f)) and prominent at 72 hours (FIGS. 3(d) and 3(g)).

The subject of test [6] is tumor tissues. Kind of test: Mouse apoptosis RT-PCR-Array on tumor tissues. In kind it is in vivo, mice. As for the experimental part: (§1) Male BALB/C mice (6 weeks old, weighing 19-20 g) were purchased from Faculty of Veterinary Medicine, University Putra Malaysia. Mice were housed in laminar air-flow cabinets under pathogen-free conditions with a 12-h light/12-h dark schedule and fed with autoclaved standard chow and water ad libitum. A549 cells (2×10^7) resuspended in 100 μL PBS were injected subcutaneously into the backs of mice. When tumor size reached approximately 100 mm^3, after 14 days of implantation, mice were randomly assigned to the following experimental groups and administered daily by oral gavage for 21 days: (a) saline; (b) erlotinib (50 mg/kg); (c) 150 mg/kg and (d) 300 mg/kg of Morinda spp. leaves, Clinacanthus spp. leaves. Mice were sacrificed via intraperitoneal injection of ketamine HCl (100 mg/kg) and xylazine (10 mg/kg). Tumor was collected. Some were kept in liquid nitrogen for gene expression, while others were fixed in 10% formalin and embedded in paraffin for hematoxylin and eosin (H&E) and immunohistochemical (IHC) examination. IHC kits (ChemMate™ DAKO EnVision™ Detection Kit, Peroxidase/DAB, Rabbit/Mouse) were purchased from Dako, Denmark. The primary antibody was anti-EGFR antibody ab15669 (Abeam; Cambridge, United Kingdom). This protocol was approved by the Animal Care and Use Committee of University Putra Malaysia (UPM/IACUC/AUP-R016/2013).
RNA was isolated using Trizol (Invitrogen, Carlsbad, Calif.). Custom RT^2 Profiler PCR Array (CAPM11988), RT^2 SYBR Green qPCR Mastermix, RT^2 First Strand Kit and RNase-Free DNase Set were purchased from SuperArray Bioscience Corporation (Frederick, Md.). Quantitative RT-PCR array for differentially expressed genes of interest was performed utilizing RT^2 Profiler PCR Array Data Analysis version 3.5 (SABiosciences; Fredrick, Md., USA), which normalized to Hsp90ab1 (NM_008302) and Gapdh (NM_008084). RT-PCR data is represented as the average relative mRNA gene expression of each experimental group (n=3).

Test [7] deals with A549 cells injected subcutaneously. The test can be described thus: In vivo tumor xenograft model. Further details: species or system mice. The following applies: erlotinib 50 mg/kg, daily oral gavage 21 days. As for the experimental part:
as §1, with “The primary antibody was anti-EGFR antibody ab15669 (Abeam; Cambridge, United Kingdom). This protocol was approved by the Animal Care and Use Committee of University Putra Malaysia (UPM/IACUC/AUP-R016/2013).” left out
Data was expressed as mean±standard deviation (mean±SD) of at least three independent experiments; significant differences (p<0.05) using one-way analysis of variance (ANOVA) and Duncan test using statistical analysis IBM SPSS Statistics 21 software.

In test [8] the test system is A549 cells. The test can be described thus: MTT cytotoxicity assay on A549 cells. In kind it is cell-based. Conditions: Homo sapiens, after 72 hours, read-out: IC50 concentrations. The method, then: The cytoxicity properties of the extract were determined by using MTT assay. MTT dye is a water-soluble yellow dye that is decreased in viable cells to MTT-formazan (3-[4,5-dimethylthiazol-2-yl]-3,5-diphenylformazan) that is an insoluble purple colored product, by the succinate dehydrogenase mitochondrial enzyme. The cells were seeded in 96-well Microplates at a density of 2×10^5 cells/ml. After 24 hours incubation, the cells were treated with various concentrations of Morinda leaf, or Clinacanthus spp. Leaves and root extract ([…]) for 24, 48 and 72 h. After 72 hours of incubation, 20 μL of MTT solution (5 mg/ml in PBS) was added in each well and the plates incubated for 4 hours. Then, after removing the media the formazan crystals were dissolved with 100 μL DMSO. Finally the absorbance was determined at 570 and 630 nm in a microplate reader (ECAN, Sunrise™, Männedorf, Switzerland). Cell viability was calculated as the percentage of absorbent compared to control. The 50% inhibitory concentration (IC50) value, defined as the amount of Morinda citrifolia leaf, or Clinacanthus spp. Leaves and root extract that inhibits 50% of cell growth, was calculated from the concentration-response curves. All experiments were carried out in triplicate. Three independent experiments performed in triplicate were used for these calculations. […]
Background: Tetrazolium dyes change colour on reduction, which living cells bring about.

[9] abbreviates: Erlotinib 50 mg/kg, vs untreated.

Turning to `CC1=C(/C=C/C(C)=C/C=C/C(C)=C/C(=O)O)C(C)(C)CCC1` [ATRA], the “apoptosis in spleen tissue (TUNEL)” value in test [1] was “significant (P<0.05) apoptosis”.

Regarding `C#Cc1cccc(Nc2ncnc3cc(OCCOC)c(OCCOC)cc23)c1` [erlotinib], in test [2], the “activity of caspase 9” value is recorded as “remained unchanged”, the “activity of caspase-3” value is listed as “significantly (P<0.05) increased” and the “activity of caspase-8” value is on record as “significantly (P<0.05) increased”. Also, in test [3], the “S and G2/M phase cells” value is listed as “concomitant decrease”; the cell cycle arrest result is given as “induced G0/G1 phase cell cycle arrested”. For the same compound, the cell cycle arrest entry in test [3] (listed as erlotnib) is reported as “induced G0/G1 arrest”. The “morphological changes of A549 cells” value in test [4] (after 24 h) is given as “most of the cells exhibit normal morphology while some cells show cell shrinkage”. In addition, the “morphological changes of A549 cells” value in test [4] (after 48 h) was “clear apoptogenic morphology such as blebbing and cell shrinkage observed”. Besides, in test [4] (after 72 h), the “morphological changes of A549 cells” value was “most of the cells were detached with obvious cell shrinkage, and blebbing of the cell membrane”. Also, the AO/PI double-stained morphology result in test [5] (after 24 h) is “cells exhibit blebbing of the cell membrane and bright green nucleus showing condensation of chromatin”. Moreover, the AO/PI double-stained morphology result in test [5] (after 48 h) was “late apoptosis features were seen”. Moreover, the AO/PI double-stained morphology entry in test [5] (after 72 hours) was “more late apoptosis”. For the same compound, in test [6] (setting [9]), the “Fold Change Bcl2” value is reported as −3.57 fold, the “Fold Change Birc5” value is given as −2.40 fold, the “Fold Change Jak2” value was −1.26 fold and the “Fold Change Stat3” value is on record as 1.06 fold. In test [6] (setting [9]), the “Fold Change Stat5a” value was 1.42 fold and the “Fold Change Trp53” value is on record as −1.10 fold. The “survivin and Bcl-2 expression” value in test [6] (erlotinib positive control) is on record as “down-regulation”. Also, the tumor size in test [7] is on record as 36.26±37.00 mm^3. The IC50 in test [8] was 2.83 µg/mL (≈ 7.19 µM).
